The source made the active and inactive calls. How the calls were made is not given here.
Biological target: Disintegrin and metalloproteinase domain-containing protein 10 (Homo sapiens) (UniProt O14672)
Experiment: inhibition of ADAM10 peptide cleavage – biochemical, FRET peptide substrate, recombinant human ADAM10, selectivity assay for ADAM17 exosite inhibitor project, dose response (AID 743259)

Disintegrin and metalloproteinase domain-containing protein 10 (Homo sapiens), sequence (O14672 214-748 limits assumed): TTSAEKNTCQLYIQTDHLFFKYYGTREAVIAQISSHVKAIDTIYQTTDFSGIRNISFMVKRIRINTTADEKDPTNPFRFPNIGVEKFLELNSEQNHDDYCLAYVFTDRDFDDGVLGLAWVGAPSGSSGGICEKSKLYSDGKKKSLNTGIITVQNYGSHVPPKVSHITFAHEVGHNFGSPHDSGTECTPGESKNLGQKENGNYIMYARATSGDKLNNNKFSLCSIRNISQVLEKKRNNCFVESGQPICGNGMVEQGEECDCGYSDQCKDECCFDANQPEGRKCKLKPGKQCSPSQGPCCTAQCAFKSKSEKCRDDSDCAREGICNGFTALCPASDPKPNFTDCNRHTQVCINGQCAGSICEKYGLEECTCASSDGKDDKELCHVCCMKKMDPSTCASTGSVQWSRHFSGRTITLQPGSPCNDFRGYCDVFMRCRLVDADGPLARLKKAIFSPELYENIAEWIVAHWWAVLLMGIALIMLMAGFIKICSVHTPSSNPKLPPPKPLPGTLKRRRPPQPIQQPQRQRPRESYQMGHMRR

Which IC50 does the source give for `CC(=NNC(=O)CSc1nnc(-c2ccc(C(C)(C)C)cc2)n1-c1ccccc1)c1cccc2ccccc12` here?
The IC50 was > 69.5 µM (inactive).

How did the IC50 turn out when `Oc1c(C(c2ccccn2)N2CCCCC2)cc(Cl)c2cccnc12` (centres undefined) was run?
Its IC50 is 9.05 µM.

How did the IC50 turn out when `COc1ccc(N(CC(O)Cn2c3ccccc3c3ccccc32)S(=O)(=O)c2ccccc2)cc1` (centres undefined) was run?
The IC50 was > 69.5 µM (inactive).

With `CCOc1ccc(NC(=O)CC2SC(=O)N(c3ccccc3)C2=O)cc1` (centres undefined) as the compound, how does the IC50 read?
The IC50 was “inactive”.

How did the IC50 turn out when `Cc1ccccc1NC(C)C(=O)N/N=C/c1ccccc1OCc1cccc(Br)c1` (centres undefined) was run?
The IC50 was > 69.5 µM (inactive).

`COCCN=c1scc(-c2cc(OC)ccc2OC)n1/N=C/c1c[nH]c2ccccc12` was tested. Which IC50 did it give?
Its IC50 is > 69.5 µM (inactive).

`C/C(=N\N=C(/N)SC1CC(=O)N(c2ccccc2)C1=O)c1cccs1` (centres undefined) was tested. Which IC50 did it give?
Its IC50 is 9.96 µM.

Which IC50 does the source give for `COCCN=c1scc(-c2cc(OC)c(OC)c(OC)c2)n1/N=C/c1c(C)[nH]c2ccccc12` here?
The IC50 was > 69.5 µM (inactive).

For `CCCOC(=O)c1ccc(Oc2cn[nH]c2-c2ccc(OCC)cc2O)cc1`, which IC50 is on record?
Its IC50 is “inactive”.

`COC(=O)c1cccc(Cn2c(Cl)c(/C=N/Nc3ccccc3C)sc2=O)c1` was tested. Which IC50 did it give?
Its IC50 is > 69.5 µM (inactive).

How did the IC50 turn out when `C/C(=N\N=C(/N)SC1CC(=O)N(c2ccc(Br)cc2)C1=O)c1cccs1` (centres undefined) was run?
Its IC50 is “inactive”.

For `COc1cccc(C2C(C#N)=C(N)Oc3c2oc(CO)cc3=O)c1` (centres undefined), which IC50 is on record?
The IC50 was > 69.5 µM (inactive).

Which IC50 does the source give for `CC(=O)c1cccc(NC(=O)C(OC(=O)c2ccccc2NS(=O)(=O)c2cccs2)c2ccccc2)c1` (centres undefined) here?
The IC50 was > 69.5 µM (inactive).

For `C=C(C)CN1CCN(S(=O)(=O)c2ccc(C)c(N(C)S(=O)(=O)c3ccc(C)cc3)c2C)CC1`, which IC50 is on record?
Its IC50 is > 69.5 µM (inactive).

Which IC50 does the source give for `O=C(CC1SC(=O)N(c2ccccc2)C1=O)Nc1ccccc1` (centres undefined) here?
Its IC50 is “inactive”.

For `CC(C)(C)c1ccc(OCc2nc(-c3ccccn3)no2)c(Br)c1`, which IC50 is on record?
Its IC50 is “inactive”.

For `O=C(NCC1CCCO1)C(c1cccs1)N(Cc1ccccc1)C(=O)c1ccc(-c2ccccc2)[nH]1` (centres undefined), which IC50 is on record?
The IC50 was > 69.5 µM (inactive).

How did the IC50 turn out when `O=C1OCCN1C(=O)[C@H]1[C@H](c2ccc([N+](=O)[O-])cc2)C(c2ccccc2)=NN1c1ccc(Br)cc1` was run?
The IC50 was > 69.5 µM (inactive).

With `Cc1cc(SCC(=O)c2ccc(O)c(O)c2)n2nc(C)c(-c3ccccc3)c2n1` as the compound, how does the IC50 read?
Its IC50 is > 69.5 µM (inactive).

— PubChem BioAssay AID743259 (The Scripps Research Institute Molecular Screening Center, 2014)
